Data as given in the supplement of paper PMC7661543.
± gives the standard deviation of the averaged measurements.

Columns and labels:
Assay in all cases: relative cell number vs DMSO control (72 h) (% of DMSO); higher = less growth inhibition (more cells)
Conditions in all cases: sgRNA knockout: sgNT
[1] = tested on: HCC-38
Method: (§1)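 QMAP-Seq: a pool of 5 breast cancer cell lines (ZR-75-1, SKBR3, HCC-38, MDA-MB-231, BT-20), each carrying 12 doxycycline-inducible Cas9 sgRNA perturbations (11 knockouts plus non-targeting sgNT), was treated with compounds for 72 h at four 10-fold doses (10 nM-10 uM or 1 nM-1 uM range). Barcodes were amplified and sequenced, and cell number was interpolated from 293T spike-in standard curves. The result is expressed as % of the median of DMSO wells. Two biological replicates.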

[2] = tested on: MDA-MB-231
Method: as §1

[3] = tested on: BT-20
Method: as §1

[4] = tested on: ZR-75-1
Method: as §1

[5] = tested on: SKBR3
Method: as §1

Nc1nc(Cl)nc2c1ncn2[C@@H]1O[C@H](CO)[C@@H](O)[C@@H]1F [Clofarabine]
relative cell number ([1]; 10 nM): 98.6 ± 18 | relative cell number ([1]; 100 nM): 25.9 ± 0.79 | relative cell number ([1]; 1000 nM): 12.6 ± 1.4 | relative cell number ([1]; 10000 nM): 12.4 ± 6.4 | relative cell number ([2]; 10 nM): 82.8 ± 26 | relative cell number ([2]; 100 nM): 30 ± 7.7 | relative cell number ([2]; 1000 nM): 12 ± 1.1 | relative cell number ([2]; 10000 nM): 22.7 ± 0.75 | relative cell number ([3]; 10 nM): 103 ± 44 | relative cell number ([3]; 100 nM): 73.9 ± 4.4 | relative cell number ([3]; 1000 nM): 27 ± 2.8 | relative cell number ([3]; 10000 nM): 26.5 ± 1.5 | relative cell number ([4]; 10 nM): 72.7 ± 31 | relative cell number ([4]; 100 nM): 63.6 ± 9.1 | relative cell number ([4]; 1000 nM): 22.1 ± 3.6 | relative cell number ([4]; 10000 nM): 25.4 ± 15 | relative cell number ([5]; 10 nM): 65.5 ± 37 | relative cell number ([5]; 100 nM): 45.5 ± 1.9 | relative cell number ([5]; 1000 nM): 10.2 ± 1.7 | relative cell number ([5]; 10000 nM): 8.24 ± 1.4

C[C@@H](Oc1cc(-c2cnn(C3CCNCC3)c2)cnc1N)c1c(Cl)ccc(F)c1Cl [Crizotinib]
relative cell number ([1]; 10 nM): 91.2 ± 15 | relative cell number ([1]; 100 nM): 85.708 ± 0.047 | relative cell number ([1]; 1000 nM): 86.8 ± 2.8 | relative cell number ([1]; 10000 nM): 25.9 ± 4.9 | relative cell number ([2]; 10 nM): 89.5 ± 29 | relative cell number ([2]; 100 nM): 88.8 ± 15 | relative cell number ([2]; 1000 nM): 54 ± 14 | relative cell number ([2]; 10000 nM): 8.63 ± 0.23 | relative cell number ([3]; 10 nM): 83.9 ± 22 | relative cell number ([3]; 100 nM): 100.3 ± 0.25 | relative cell number ([3]; 1000 nM): 75.5 ± 12 | relative cell number ([3]; 10000 nM): 44.2 ± 4.7 | relative cell number ([4]; 10 nM): 75.6 ± 19 | relative cell number ([4]; 100 nM): 116 ± 13 | relative cell number ([4]; 1000 nM): 34.1 ± 13 | relative cell number ([4]; 10000 nM): 14.6 ± 0.35 | relative cell number ([5]; 10 nM): 92.7 ± 20 | relative cell number ([5]; 100 nM): 98.4 ± 12 | relative cell number ([5]; 1000 nM): 88.6 ± 8.4 | relative cell number ([5]; 10000 nM): 37.4 ± 27

COc1cc(/C=C/C(=O)CC(=O)/C=C/c2ccc(O)c(OC)c2)ccc1O [Curcumin]
relative cell number ([1]; 10 nM): 100 ± 14 | relative cell number ([1]; 100 nM): 97.5 ± 7 | relative cell number ([1]; 1000 nM): 95.5 ± 7.2 | relative cell number ([1]; 10000 nM): 85.5 ± 21 | relative cell number ([2]; 10 nM): 91.8 ± 29 | relative cell number ([2]; 100 nM): 136 ± 59 | relative cell number ([2]; 1000 nM): 88.6 ± 8.1 | relative cell number ([2]; 10000 nM): 61.55 ± 0.48 | relative cell number ([3]; 10 nM): 116 ± 7.8 | relative cell number ([3]; 100 nM): 107 ± 32 | relative cell number ([3]; 1000 nM): 95.9 ± 6.5 | relative cell number ([3]; 10000 nM): 95.3 ± 16 | relative cell number ([4]; 10 nM): 73.8 ± 1.7 | relative cell number ([4]; 100 nM): 84.5 ± 52 | relative cell number ([4]; 1000 nM): 112 ± 46 | relative cell number ([4]; 10000 nM): 72.5 ± 0.98 | relative cell number ([5]; 10 nM): 106 ± 29 | relative cell number ([5]; 100 nM): 82.86 ± 0.028 | relative cell number ([5]; 1000 nM): 111 ± 7.2 | relative cell number ([5]; 10000 nM): 66.7 ± 0.98

O=P1(N(CCCl)CCCl)NCCCO1 (stereo not given) [Cyclophosphamide]
relative cell number ([1]; 10 nM): 89.7 ± 13 | relative cell number ([1]; 100 nM): 86.8 ± 5.3 | relative cell number ([1]; 1000 nM): 93.6 ± 5.8 | relative cell number ([1]; 10000 nM): 94.7 ± 8.6 | relative cell number ([2]; 10 nM): 96.1 ± 29 | relative cell number ([2]; 100 nM): 134 ± 22 | relative cell number ([2]; 1000 nM): 74 ± 11 | relative cell number ([2]; 10000 nM): 136 ± 10 | relative cell number ([3]; 10 nM): 81.2 ± 1.5 | relative cell number ([3]; 100 nM): 114 ± 0.31 | relative cell number ([3]; 1000 nM): 107 ± 5.6 | relative cell number ([3]; 10000 nM): 114 ± 8.3 | relative cell number ([4]; 10 nM): 83.2 ± 52 | relative cell number ([4]; 100 nM): 111 ± 50 | relative cell number ([4]; 1000 nM): 81.3 ± 37 | relative cell number ([4]; 10000 nM): 89 ± 21 | relative cell number ([5]; 10 nM): 88.4 ± 22 | relative cell number ([5]; 100 nM): 86.2 ± 26 | relative cell number ([5]; 1000 nM): 102 ± 19 | relative cell number ([5]; 10000 nM): 93.3 ± 7.1

CC(C)(C)c1nc(-c2cccc(NS(=O)(=O)c3c(F)cccc3F)c2F)c(-c2ccnc(N)n2)s1 [Dabrafenib]
relative cell number ([1]; 10 nM): 141 ± 32 | relative cell number ([1]; 100 nM): 96.9 ± 5.1 | relative cell number ([1]; 1000 nM): 93.8 ± 4.2 | relative cell number ([1]; 10000 nM): 94.7 ± 7.9 | relative cell number ([2]; 10 nM): 106 ± 7.5 | relative cell number ([2]; 100 nM): 137 ± 23 | relative cell number ([2]; 1000 nM): 91.8 ± 27 | relative cell number ([2]; 10000 nM): 115 ± 10 | relative cell number ([3]; 10 nM): 134 ± 10 | relative cell number ([3]; 100 nM): 116 ± 16 | relative cell number ([3]; 1000 nM): 109 ± 12 | relative cell number ([3]; 10000 nM): 112 ± 1.6 | relative cell number ([4]; 10 nM): 129 ± 31 | relative cell number ([4]; 100 nM): 128 ± 3.2 | relative cell number ([4]; 1000 nM): 119 ± 46 | relative cell number ([4]; 10000 nM): 76.8 ± 7.1 | relative cell number ([5]; 10 nM): 133 ± 3.3 | relative cell number ([5]; 100 nM): 121 ± 1.7 | relative cell number ([5]; 1000 nM): 96.5 ± 9.5 | relative cell number ([5]; 10000 nM): 104 ± 14
